This passage reports GI50 and TGI results from PubChem BioAssay (NCI).

Holding throughout (assay): DTP human tumour cell line panel, 48 h
Test [1] relates to A498 renal.
Test [2] relates to A549 NSCLC.
Test [3] has as its system BT-549 breast.
Test [4] concerns CCRF-CEM leukemia.
Test [5] deals with HCT-116 colon.
Test [6] relates to HS 578T breast.
The test system of test [7] is LOX IMVI melanoma.
For test [8], the system named is RXF 393 renal.
Test [9] concerns SR leukemia.
In test [10] the test system is T-47D breast.

Values joined by “and” are separate entries in the source; they are usually repeats but may differ in a detail not shown here. Equal entries are not always repeated.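 Assay format: 96-well plates, 48-hour exposure. At the GI50, growth is halved. TGI marks complete inhibition of growth.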

In the case of `N#Cc1ccc(O)c(C2=NCC(c3ccc(-c4ccccc4)cc3)O2)c1` (stereo not drawn), the concentration for 50% growth inhibition (GI50) in [1] was 0.402 µM; in test [2] it was 0.418 µM; in test [3], 1.37 µM; in test [4], 0.264 µM; in test [5], 0.462 µM; in [6], 0.867 µM. The GI50 in [7] was 0.0579 µM; in [8] it was 0.487 µM; in test [9], 0.529 µM; in [10] it was 0.565 µM. Also, the TGI in test [1] is 18.5 µM; in [2] it was 8.06 µM; in [3], 16.1 µM; in test [4] it was over 100 µM; in test [5] it was 15.2 µM; in test [6] it was 31.9 µM. For the same compound, the TGI in test [7] is 10.8 µM; in test [8], 5.55 µM; in test [9], over 100 µM; in test [10], 24.1 µM.

As to `Cc1cnc(-c2ccc(-c3ccc(NC(=O)Nc4cccc(C(F)(F)F)c4)cc3F)c3c2C(=O)NC3)[nH]1`, the GI50 in test [1] is 0.115 µM; in test [2] it was 7.49 µM; in test [3] it was 10.8 µM; in [4], 1.31 µM; in [5] it was 0.548 µM; in [6], 2.46 µM. Further, the GI50 in [7] was 0.357 µM; in test [8], 2.42 µM; in test [9], 0.0862 µM; in test [10], 12.7 µM. The TGI is 3.13 µM in test [1]; over 47.9 µM in test [2]; 49.1 µM in test [3]; 18.7 µM in test [4]; 23.8 µM in [5]; 35.4 µM in [6]. The TGI in test [7] is 17.7 µM; in test [8], 21.3 µM; in test [9] it was over 59.9 µM; in [10], 33.5 µM.

Turning to `CN1CCN(C(=O)[C@@]2(C)CC[C@]3(C)CC[C@]4(C)C(=CC[C@@H]5[C@@]6(C)CC[C@H](OC(=O)c7cccnc7)C(C)(C)[C@@H]6CC[C@]54C)[C@@H]3C2)CC1`, the GI50 in test [1] is 4.38 µM; in test [2] it was 1.71 µM; in [3], 1.7 µM; in test [4], 2.35 µM; in test [5], 1.48 µM; in test [6] it was 1.45 µM. Besides, the GI50 in [7] is 1.65 µM; in [8] it was 1.66 µM; in test [9], 0.937 µM; in test [10], 3.12 µM. The concentration for total growth inhibition (TGI) in test [1] came out at 18.4 µM; in test [2] it was 3.28 µM; in [3], 3.49 µM; in test [4] it was 6.45 µM; in test [5], 2.87 µM; in test [6] it was 3.14 µM. For the same compound, the TGI in test [7] worked out at 3.06 µM; in test [8], 3.33 µM; in test [9], 4.08 µM; in test [10] it was 17 µM.

Take `O=C(C(=O)c1cccnc1)c1cccnc1`: the GI50 in test [1], in test [2], in test [3], in test [4], in test [5] and in test [6] was over 100 µM each time. The GI50 in test [7], in [8], in test [9] and in test [10] was over 100 µM throughout. Besides, the TGI in [1], in test [2], in test [3], in test [4], in test [5] and in test [6] was over 100 µM each time. Also, the TGI in test [7], in test [8], in [9] and in test [10] was over 100 µM in each case.

On to `CSc1nc(SC)c2c(C)c(Br)[nH]c2n1`, for which the total growth inhibition concentration (TGI) in test [1], in [2], in test [3], in [4], in [5] and in [6] was over 100 µM in each case. Further, the concentration for total growth inhibition (TGI) in [7], in test [8], in [9] and in test [10] was over 100 µM in each case.

Regarding `O=C(O)CC(S)C(=O)O.[Li+].[Sb]` (stereo not drawn), the GI50 in test [1] is over 100 µM; in test [2], over 100 µM; in test [3], over 100 µM; in [4], 57 µM; in [5], over 100 µM; in test [6], over 100 µM. Besides, the GI50 is 47.1 µM in test [7], over 100 µM in test [8], 32.9 µM in [9] and over 100 µM in test [10]. The TGI in test [1], in test [2], in test [3], in test [4], in [5] and in [6] was over 100 µM each time. Also, the TGI in [7], in test [8], in test [9] and in test [10] was over 100 µM throughout.

As for `CC[C@H](C)[C@H](NC(=O)[C@H]1CCCCN1C)C(=O)N(C)[C@H](C[C@@H](OC(C)=O)c1nc(C(=O)NC23C4C5C2C2C3C4C52C(=O)OC)cs1)C(C)C` (stereo partly drawn), the GI50 in test [1] is 0.0139 µM and 0.00317 µM; in [2] it was 0.00879 µM and 0.0025 µM; in test [3] it was 0.00344 µM and 0.0025 µM; in test [4], 0.0027 µM and 0.0025 µM; in test [5], 0.00355 µM and 0.0025 µM; in test [6] it was 0.000754 µM and 0.0025 µM. Besides, the concentration for 50% growth inhibition (GI50) in test [7] was 0.00108 µM and 0.0025 µM; in test [8], 0.000768 µM; in test [10], 0.00275 µM. Further, the TGI in [1] was 0.133 µM; in [2], over 25 µM; in test [3] it was 0.0801 µM and 0.0268 µM; in [4] it was 3.33 µM; in test [5] it was 0.088 µM; in [6], over 25 µM. Moreover, the figures for the TGI in test [7], in [8] and in [9] were over 25 µM, 0.00906 µM and 5.98 µM, respectively.
